Assay results taken from ChEMBL document CHEMBL1156794, “Synthesis and antimicrobial evaluation of amphiphilic neamine derivatives” (J Med Chem, 2010).
In brackets after ≈: the same amount, converted by molar mass.

Legend:
Staphylococcus aureus [1] = assay: Antibacterial activity against aminoglycoside-6'-N-acetyltransferase/2''-O-phosphoryltransferase expressing Staphylococcus aureus after 24 hrs by geometric microdilution method; format: functional
Staphylococcus aureus [2] = assay: Antibacterial activity against methicillin-resistant Staphylococcus aureus ATCC 33592 clinical isolate after 24 hrs by geometric microdilution method; format: functional; conditions: ATCC 33592, 24 h
Pseudomonas aeruginosa [3] = assay: Antibacterial activity against MexAB, MexCD, MexEF, MexXY, TriABC deleted Pseudomonas aeruginosa PA406 after 24 hrs by geometric microdilution method; format: functional; conditions: PA406, 24 h
Pseudomonas aeruginosa [4] = assay: Antibacterial activity against Pseudomonas aeruginosa ATCC 27853 after 24 hrs by geometric microdilution method; format: functional; conditions: ATCC 27853, 24 h
Staphylococcus aureus [5] = assay: Antibacterial activity against NorA pump expressing Staphylococcus aureus after 24 hrs by geometric microdilution method; format: functional
Acinetobacter lwoffii [6] = assay: microbe, parasite or virus in culture; conditions: ATCC 17925, 24 h
Description: Antibacterial activity against Acinetobacter lwoffii ATCC 17925 after 24 hrs by geometric microdilution method

Pseudomonas aeruginosa [7] = assay: Antibacterial activity against MexCD expressing Pseudomonas aeruginosa PA01 after 24 hrs by geometric microdilution method; format: functional; conditions: PA01, 24 h
Staphylococcus aureus [8] = assay: Antibacterial activity against MsrA pump expressing Staphylococcus aureus after 24 hrs by geometric microdilution method; format: functional
Staphylococcus aureus [9] = assay: Antibacterial activity against vancomycin-resistant Staphylococcus aureus VRS-2 after 24 hrs by geometric microdilution method; format: functional; conditions: VRS-2, 24 h
Pseudomonas aeruginosa [10] = assay: Antibacterial activity against AAC6'-2a expressing Pseudomonas aeruginosa F03 after 24 hrs by geometric microdilution method; format: functional; conditions: F03, 24 h
Staphylococcus aureus [11] = assay: Antibacterial activity against aminoglycoside-3'-O-phosphoryltransferase expressing Staphylococcus aureus after 24 hrs by geometric microdilution method; format: functional
Staphylococcus aureus [12] = assay: Antibacterial activity against aminoglycoside-4'-O-phosphoryltransferase expressing Staphylococcus aureus after 24 hrs by geometric microdilution method; format: functional
Pseudomonas aeruginosa [13] = assay: Antibacterial activity against MexEF expressing Pseudomonas aeruginosa PA03 after 24 hrs by geometric microdilution method; format: functional; conditions: PA03, 24 h
Escherichia coli [14] = assay: Antibacterial activity against AAC6'-2b expressing Escherichia coli PAZ505H8101 after 24 hrs by geometric microdilution method; format: functional; conditions: PAZ505H8101, 24 h
Pseudomonas aeruginosa [15] = assay: Antibacterial activity against MexXY expressing Pseudomonas aeruginosa PT629 after 24 hrs by geometric microdilution method; format: functional; conditions: PT629, 24 h
Klebsiella pneumoniae = assay: Antibacterial activity against Klebsiella pneumoniae ATCC 700603 after 24 hrs by geometric microdilution method; format: functional; conditions: ATCC 700603, 24 h
Escherichia coli [16] = assay: microbe, parasite or virus in culture; conditions: ATCC 25922, 24 h
Description: Antibacterial activity against Escherichia coli ATCC 25922 after 24 hrs by geometric microdilution method

Acinetobacter lwoffii [17] = assay: Antibacterial activity against […] expressing Acinetobacter lwoffii AI.88-483 after 24 hrs by geometric microdilution method; format: functional; conditions: AI.88-483, 24 h
Pseudomonas aeruginosa [18] = assay: Antibacterial activity against MexAB expressing Pseudomonas aeruginosa PA21 after 24 hrs by geometric microdilution method; format: functional; conditions: PA21, 24 h
Escherichia coli [19] = assay: Antibacterial activity against ANT2'-2a expressing Escherichia coli L58058.1 after 24 hrs by geometric microdilution method; format: functional; conditions: L58058.1, 24 h
Pseudomonas aeruginosa [20] = assay: Antibacterial activity against MexXY expressing Pseudomonas aeruginosa PA22 after 24 hrs by geometric microdilution method; format: functional; conditions: PA22, 24 h
Staphylococcus aureus [21] = assay: Antibacterial activity against Staphylococcus aureus ATCC 25923 after 24 hrs by geometric microdilution method; format: functional; conditions: ATCC 25923, 24 h
Pseudomonas aeruginosa [22] = assay: Antibacterial activity against TriABC expressing MexAB, MexCD, MexEF, MexXY deleted Pseudomonas aeruginosa PA405 after 24 hrs by geometric microdilution method; format: functional; conditions: PA405, 24 h
Pseudomonas aeruginosa [23] = assay: Antibacterial activity against Pseudomonas aeruginosa PAO1 after 24 hrs by geometric microdilution method; format: functional; conditions: PAO1, 24 h

Row | Structure (SMILES) | MIC (Staphylococcus aureus [1]) | MIC (Staphylococcus aureus [2]) | MIC (Pseudomonas aeruginosa [3]) | MIC (Pseudomonas aeruginosa [4]) | MIC (Staphylococcus aureus [5]) | MIC (Acinetobacter lwoffii [6]) | MIC (Pseudomonas aeruginosa [7]) | MIC (Staphylococcus aureus [8]) | MIC (Staphylococcus aureus [9]) | MIC (Pseudomonas aeruginosa [10]) | MIC (Staphylococcus aureus [11]) | MIC (Staphylococcus aureus [12]) | MIC (Pseudomonas aeruginosa [13]) | MIC (Escherichia coli [14]) | MIC (Pseudomonas aeruginosa [15]) | MIC (Klebsiella pneumoniae) | MIC (Escherichia coli [16]) | MIC (Acinetobacter lwoffii [17]) | MIC (Pseudomonas aeruginosa [18]) | MIC (Staphylococcus aureus [21]) | also measured
1 | NC[C@H]1O[C@H](O[C@H]2[C@H](OCc3ccc4ccccc4c3)[C@@H](O)[C@H](N)C[C@@H]2N)[C@H](N)[C@@H](O)[C@@H]1OCc1ccc2ccccc2c1 | 128 µg/mL (≈ 212 µM) | 64 µg/mL (≈ 106 µM) | 16 µg/mL (≈ 26.5 µM) | 128 µg/mL (≈ 212 µM) | 128 µg/mL (≈ 212 µM) | 32 µg/mL (≈ 53.1 µM) | > 128 µg/mL | 128 µg/mL (≈ 212 µM) | 64 µg/mL (≈ 106 µM) | > 128 µg/mL | 32 µg/mL (≈ 53.1 µM) | 128 µg/mL (≈ 212 µM) | > 128 µg/mL | 128 µg/mL (≈ 212 µM) | > 128 µg/mL | > 128 µg/mL | 128 µg/mL (≈ 212 µM) | > 128 µg/mL | > 128 µg/mL | 64 µg/mL (≈ 106 µM) | MIC (Escherichia coli [19]): 128 µg/mL (≈ 212 µM); MIC (Pseudomonas aeruginosa [20]): > 128 µg/mL; MIC (Pseudomonas aeruginosa [22]): 16 µg/mL (≈ 26.5 µM); MIC (Pseudomonas aeruginosa [23]): > 128 µg/mL
2 | NC[C@H]1O[C@H](O[C@H]2[C@H](O)[C@@H](O)[C@H](N)C[C@@H]2N)[C@H](N)[C@@H](OCc2ccc3ccccc3c2)[C@@H]1O | > 128 µg/mL |  |  |  | > 128 µg/mL |  |  | > 128 µg/mL |  |  | 128 µg/mL (≈ 277 µM) | > 128 µg/mL |  |  |  |  |  |  |  | > 128 µg/mL | 
3 | NC[C@H]1O[C@H](O[C@H]2[C@H](O)[C@@H](OCc3ccc4ccccc4c3)[C@H](N)C[C@@H]2N)[C@H](N)[C@@H](O)[C@@H]1O | > 128 µg/mL | > 128 µg/mL |  |  | > 128 µg/mL |  |  | > 128 µg/mL |  |  | > 128 µg/mL | > 128 µg/mL |  |  |  |  |  |  |  | > 128 µg/mL | 
4 | NC[C@H]1O[C@H](O[C@H]2[C@H](O)[C@@H](O)[C@H](N)C[C@@H]2N)[C@H](N)[C@@H](O)[C@@H]1OCc1ccc2ccccc2c1 | > 128 µg/mL |  |  |  | > 128 µg/mL |  |  | > 128 µg/mL |  |  | > 128 µg/mL | > 128 µg/mL |  |  |  |  |  |  |  | > 128 µg/mL | 
5 | NC[C@H]1O[C@H](O[C@H]2[C@H](OCc3ccc4ccccc4c3)[C@@H](O)[C@H](N)C[C@@H]2N)[C@H](N)[C@@H](O)[C@@H]1O | > 128 µg/mL |  |  |  | > 128 µg/mL |  |  | > 128 µg/mL |  |  | > 128 µg/mL | > 128 µg/mL |  |  |  |  |  |  |  | > 128 µg/mL | 
6 | NC[C@H]1O[C@H](O[C@H]2[C@H](O)[C@@H](OCc3ccc4ccccc4n3)[C@H](N)C[C@@H]2N)[C@H](N)[C@@H](OCc2ccc3ccccc3n2)[C@@H]1OCc1ccc2ccccc2n1 | 128 µg/mL (≈ 172 µM) | 64 µg/mL (≈ 85.8 µM) | 64 µg/mL (≈ 85.8 µM) | > 128 µg/mL | > 128 µg/mL | 128 µg/mL (≈ 172 µM) | > 128 µg/mL | > 128 µg/mL | 64 µg/mL (≈ 85.8 µM) | > 128 µg/mL | 64 µg/mL (≈ 85.8 µM) | > 128 µg/mL | > 128 µg/mL | > 128 µg/mL | > 128 µg/mL | > 128 µg/mL | > 128 µg/mL | > 128 µg/mL | > 128 µg/mL | 128 µg/mL (≈ 172 µM) | MIC (Escherichia coli [19]): > 128 µg/mL; MIC (Pseudomonas aeruginosa [20]): > 128 µg/mL; MIC (Pseudomonas aeruginosa [22]): 64 µg/mL (≈ 85.8 µM); MIC (Pseudomonas aeruginosa [23]): > 128 µg/mL
7 | NC[C@H]1O[C@H](O[C@H]2[C@H](O)[C@@H](O)[C@H](N)C[C@@H]2N)[C@H](N)[C@@H](O)[C@@H]1O [NEAMINE] | 16 µg/mL (≈ 49.6 µM) | > 128 µg/mL | 128 µg/mL (≈ 397 µM) | > 128 µg/mL | 32 µg/mL (≈ 99.3 µM) | 2 µg/mL (≈ 6.2 µM) | > 128 µg/mL | 16 µg/mL (≈ 49.6 µM) | > 128 µg/mL | > 128 µg/mL | > 128 µg/mL | > 128 µg/mL | > 128 µg/mL | > 128 µg/mL | > 128 µg/mL | 32 µg/mL (≈ 99.3 µM) | 32 µg/mL (≈ 99.3 µM) | > 128 µg/mL | > 128 µg/mL | 32 µg/mL (≈ 99.3 µM) | MIC (Escherichia coli [19]): 32 µg/mL (≈ 99.3 µM); MIC (Pseudomonas aeruginosa [20]): > 128 µg/mL; MIC (Pseudomonas aeruginosa [22]): 128 µg/mL (≈ 397 µM); MIC (Pseudomonas aeruginosa [23]): > 128 µg/mL
8 | NC[C@H]1O[C@H](O[C@H]2[C@H](O)[C@@H](OCc3ccc4ccccc4c3)[C@H](N)C[C@@H]2N)[C@H](N)[C@@H](O)[C@@H]1OCc1ccc2ccccc2c1 | 32 µg/mL (≈ 53.1 µM) | 64 µg/mL (≈ 106 µM) | 16 µg/mL (≈ 26.5 µM) | > 128 µg/mL | 32 µg/mL (≈ 53.1 µM) | 64 µg/mL (≈ 106 µM) | 128 µg/mL (≈ 212 µM) | 32 µg/mL (≈ 53.1 µM) | 32 µg/mL (≈ 53.1 µM) | > 128 µg/mL | 16 µg/mL (≈ 26.5 µM) | 16 µg/mL (≈ 26.5 µM) | 16 µg/mL (≈ 26.5 µM) | 64 µg/mL (≈ 106 µM) | > 128 µg/mL | > 128 µg/mL | 128 µg/mL (≈ 212 µM) | > 128 µg/mL | > 128 µg/mL | 32 µg/mL (≈ 53.1 µM) | MIC (Escherichia coli [19]): 128 µg/mL (≈ 212 µM); MIC (Pseudomonas aeruginosa [20]): > 128 µg/mL; MIC (Pseudomonas aeruginosa [22]): 32 µg/mL (≈ 53.1 µM); MIC (Pseudomonas aeruginosa [23]): > 128 µg/mL
